# Earlier results in patent US20250295646A1, “METHODS OF USE OF T-TYPE CALCIUM CHANNEL MODULATORS” (Praxis Precision Medicines, Inc., priority 2022, published 2025).
# Conditions: WO 2020/072773, cited from earlier work
compound,measurement,setting,value
CC(C)c1ccc(CC(=O)N[C@H](C)c2ccc(OCC(F)(F)F)cn2)cc1 [CX-8998],discontinuation due to intolerability of adverse events,28-day essential tremor study,17%
same,discontinuation rate,28-day essential tremor study,23%
same,tolerability of doses of 20 and 24 mg,,less well tolerated
same,single doses generally well tolerated,non-titrated,up to 16 mg
